# From patent US11629139B2 (priority 2017, dated 2023)
# Like-named read-outs stand apart in the source and are kept apart here.
# Tests used:
# [1] = mouse, in vivo
# [2] = plasma
# [3] = pH 7.4
# [4] = system: vesicular stomatitis virus particles (VSV) pseudotyped with EboV Zaire GP; settings: cited from earlier work
# [5] = system: vesicular stomatitis virus particles (VSV) pseudotyped with EboV Zaire GP; assay: microbe, parasite or virus in culture; assay type: cell-based
# in vitro [6] = settings: mouse, microsomes
# physchem = settings: pH 7.4, aqueous buffer, kinetic from dmso stock
# in vivo = settings: mouse, po, 25 mg/kg
# [7] = not given; remark: listed apart in the source
# EBOV Kikwit = assay: microbe, parasite or virus in culture; assay type: cell-based, Ebola virus; settings: Zaire ebolavirus, HeLa, read-out: EBOV Kikwit(Hela) EC50
# EBOV Makona = assay: microbe, parasite or virus in culture; assay type: cell-based, Ebola virus; settings: Zaire ebolavirus, HeLa, read-out: EBOV Makona (Hela) EC50
# Ebola virus (Mayinga) = assay: microbe, parasite or virus in culture; assay type: cell-based; settings: Zaire ebolavirus, HeLa, read-out: EBOV Maiynga) (Hela) EC50
# in vitro [8] = settings: mouse, plasma, m-plasma protein binding
compound,measurement,setting,value
CS(=O)(=O)c1ccc(COc2ccc(Cl)cc2CN2CCN(C(=O)CNC(=O)C3CC34CCC(F)(F)CC4)CC2)cc1 (racemic) [(racemic)-1476],Concentration required to reduce cell viability by 50%,cell viability,exceeded 10 μM
[2H]C([2H])(c1cc(Cl)ccc1NCc1ccc(S(C)(=O)=O)cc1)N1CCN(C(=O)CNC(=O)C2CC23CCC(F)(F)CC3)CC1 (racemic) [(racemic)-1503],Concentration required to reduce cell viability by 50%,cell viability,exceeded 10 μM
"Nc1ccc(Cl)cc1CN1CCN(C(=O)CNC(=O)C2CC23CCC(F)(F)CC3)CC1 (single isomer, unassigned; (-)) [(−)-1413]",Cmax,"[1]; po, 50 mg/kg",19.5 µM
"CS(=O)(=O)c1ccc(COc2ccc(Cl)cc2CN2CCN(C(=O)CNC(=O)C3CC34CCC(F)(F)CC4)CC2)cc1 (single isomer, unassigned; (-)) [(−)-1476]","MLM, T½ (min) (ritonavir 3 μM)","mouse, microsomes",>120 min
same,Mouse PPB (% bound),[2],97.6%
same,Kinetic solubility,[3],10 µM
same,C@12 hr,[1],4.7 µM
same,Cl_obs,[1],11.9 mL/min/kg
same,Plasma concentration after 12 hours relative to in vitro IC50 against rVSV EBOV infection in 50% human serum,[1],50 fold
same,AUClast,"[1]; po, 50 mg/kg",116.4 µM·h
same,Cmax,"[1]; po, 50 mg/kg",10.4 µM
same,T1/2,"[1]; po, 50 mg/kg",132 min
same,Tmax,"[1]; po, 50 mg/kg",240 min
"CS(=O)(=O)c1ccc(CNc2ccc(Cl)cc2CN2CCN(C(=O)CNC(=O)C3CC34CCC(F)(F)CC4)CC2)cc1 (single isomer, unassigned; (-)) [(−)-1503]",Cmax,"[1]; po, 50 mg/kg",7.4 µM
"COC(=O)c1ccc(COc2ccccc2CN2CCN(C(=O)CNC(=O)CC34CC5CC(CC(C5)C3)C4)CC2)cc1 [Compound 3.47, reference compound]",Potency against EboV GP-dependent infection,[4],increased potency
same,Concentration required to reduce cell viability by 50%,cell viability,exceeded 10 μM
O=C(CC12CC3(F)CC(F)(CC(F)(C3)C1)C2)NCC(=O)N1CCN(Cc2ccccc2OCc2ccc(Br)cc2)CC1 [Compound 1254],IC50,[5]; Vesicular stomatitis virus,200 nM
same,half-life,"in vitro [6]; pH 7.4, MLM T½ (min)",1 min
"Nc1ccc(Cl)cc1CN1CCN(C(=O)CNC(=O)CC2CCC(F)(F)CC2)CC1 [Compound 1343, N-(2-(4-(2-Amino-5-chlorobenzyl)piperazin-1-yl)-2-oxoethyl)-2-(4,4-difluorocyclohexyl)acetamide]",IC50,[5]; Vesicular stomatitis virus,320 nM
same,Mouse PPB (% bound),[2],86.9%
same,Sol,[3],>100 mM
same,half-life,"in vitro [6]; pH 7.4, MLM T½ (min)",9 min
same,half-life,"in vitro [6]; pH 7.4, T1/2(min)",8.7 min
same,solubility kinetic,physchem,> 100 µM
"Nc1ccc(Cl)cc1CN1CCN(C(=O)CNC(=O)C2CC23CCC(F)(F)CC3)CC1 (stereo not shown) [Compound 1373, N-(2-(4-(2-Amino-5-chlorobenzyl)piperazin-1-yl)-2-oxoethyl)-6,6-difluorospiro[2.5]octane-1-carboxamide]",IC50,[5]; Vesicular stomatitis virus,100 nM
same,half-life,"in vitro [6]; pH 7.4, T1/2(min)",1.3 min
"[2H]C([2H])(c1cc(Cl)ccc1N)N1CCN(C(=O)CNC(=O)CC2CCC(F)(F)CC2)CC1 [Compound 1412, N-(2-(4-((2-amino-5-chlorophenyl)methyl-d2)piperazin-1-yl)-2-oxoethyl)-2-(4,4-difluorocyclohexyl)acetamide]",IC50,[5],68 nM
same,IC50,[5]; Vesicular stomatitis virus,130 nM
same,Effect of CYP3A4 inhibition on T1/2 (FIG. 9),"mouse, microsomes",improves
same,T1/2 (min),"mouse, microsomes, pH 7.4",1.4/144 min
same,Increase of stability in mouse liver microsomes by ritonavir,pH 7.4,10- to 30 fold
same,Kinetic solubility,[3],93 µM
same,Sol,[3],>100 mM
same,C@12 hr,[1],1.7 µM
same,Cl_obs,[1],12.3 mL/min/kg
same,Decrease of the clearance by co-administration of ritonavir,[1]; po,~4 fold
same,Increase of the AUC by co-administration of ritonavir,[1]; po,~4 fold
same,C@12 hr,"[1]; po, 25 mg/kg",0.2 µM
same,Cl_obs,"[1]; po, 25 mg/kg",49.0 mL/min/kg
same,Cmax,"[1]; po, 25 mg/kg",7.2 µM
same,T1/2,"[1]; po, 25 mg/kg",138 min
same,Cmax,in vivo,12 µM
same,half-life,"in vitro [6]; pH 7.4, Microsome T1/2",8.7 to 13 min
same,half-life,"in vitro [6]; pH 7.4, T1/2(min)",13 min
same,half-life,"in vitro [6]; pH 7.4, T1/2 + ritonavir (min)",144 min
same,solubility kinetic,physchem,> 100 µM
"[2H]C([2H])(c1cc(Cl)ccc1N)N1CCN(C(=O)CNC(=O)C2CC23CCC(F)(F)CC3)CC1 (stereo not shown) [Compound 1413, N-(2-(4-((2-amino-5-chlorophenyl)methyl-d2)piperazin-1-yl)-2-oxoethyl)-6,6-difluorospiro[2.5]octane-1-carboxamide]",IC50,[5],130 nM
same,IC50,[5]; Vesicular stomatitis virus,68 nM
same,T1/2 (min),"mouse, microsomes, pH 7.4",13/215 min
same,half-life,"in vitro [6]; pH 7.4, Microsome T1/2",1.4 to 2 min
same,half-life,"in vitro [6]; pH 7.4, T1/2(min)",2 min
same,half-life,"in vitro [6]; pH 7.4, T1/2 + ritonavir (min)",215 min
same,solubility kinetic,physchem,> 100 µM
CS(=O)(=O)c1ccc(COc2ccc(Cl)cc2CN2CCN(C(=O)CNC(=O)CC3CCC(F)(F)CC3)CC2)cc1 [Compound 1458],IC50,[5]; Vesicular stomatitis virus,9 nM
same,"MLM, T½ (min) (ritonavir 3 μM)","mouse, microsomes, pH 7.4",>120 min
same,Mouse plasma stability (% at 4 hours),[7],30%
CS(=O)(=O)c1ccc(CNc2ccc(Cl)cc2CN2CCN(C(=O)CNC(=O)CC3CCC(F)(F)CC3)CC2)cc1 [Compound 1477],EC50,EBOV Kikwit,12 nM
same,EC50,EBOV Makona,52 nM
same,EC50,Ebola virus (Mayinga),33 nM
same,m-μsome T1/2 (with 3 μM of Ritonavir),"mouse, microsomes, pH 7.4",90 min
same,Concentration required to reduce cell viability by 50%,cell viability,exceeded 10 μM
same,fraction unbound,in vitro [8],0.001
CS(=O)(=O)c1ccc(CNc2ccc(Cl)cc2CN2CCN(C(=O)CNC(=O)C3CC34CCC(F)(F)CC4)CC2)cc1 (stereo not shown) [Compound 1478],EC50,EBOV Kikwit,9 nM
same,EC50,EBOV Makona,17 nM
same,EC50,Ebola virus (Mayinga),35 nM
same,m-μsome T1/2 (with 3 μM of Ritonavir),"mouse, microsomes, pH 7.4",128 min
same,fraction unbound,in vitro [8],0.001
[2H]C([2H])(c1cc(Cl)ccc1NCc1ccc(S(C)(=O)=O)cc1F)N1CCN(C(=O)CNC(=O)[C@@H]2CC23CCC(F)(F)CC3)CC1 [Compound 1562],IC50,[5]; Vesicular stomatitis virus,13 nM
[2H]C([2H])(c1cc(Cl)ccc1NCc1ncccn1)N1CCN(C(=O)CNC(=O)[C@@H]2CC23CCC(F)(F)CC3)CC1 [Compound 1580],IC50,[5]; Vesicular stomatitis virus,700 nM
[2H]C([2H])(c1cc(Cl)ccc1NCc1ccon1)N1CCN(C(=O)CNC(=O)[C@@H]2CC23CCC(F)(F)CC3)CC1 [Compound 1581],IC50,[5]; Vesicular stomatitis virus,470 nM
[2H]C([2H])(c1cc(Cl)ccc1NCc1ccc(F)cn1)N1CCN(C(=O)CNC(=O)[C@@H]2CC23CCC(F)(F)CC3)CC1 [Compound 1582],IC50,[5]; Vesicular stomatitis virus,240 nM
[2H]C([2H])(c1cc(Cl)ccc1NCc1cocn1)N1CCN(C(=O)CNC(=O)[C@@H]2CC23CCC(F)(F)CC3)CC1 [Compound 1583],IC50,[5]; Vesicular stomatitis virus,150 nM
[2H]C([2H])(c1cc(Cl)ccc1NCc1ccc(C#N)cn1)N1CCN(C(=O)CNC(=O)[C@@H]2CC23CCC(F)(F)CC3)CC1 [Compound 1584],IC50,[5]; Vesicular stomatitis virus,30 nM
O=C(NCC(=O)N1CCN(Cc2cc(Cl)ccc2NCc2ncco2)CC1)[C@@H]1CC12CCC(F)(F)CC2 [Compound 1585],IC50,[5]; Vesicular stomatitis virus,1300 nM
[2H]C([2H])(c1cc(Cl)ccc1NCc1ccc(S(C)(=O)=O)cn1)N1CCN(C(=O)CNC(=O)[C@@H]2CC23CCC(F)(F)CC3)CC1 [Compound 1586],IC50,[5]; Vesicular stomatitis virus,45 nM
[2H]C([2H])(c1cc(Cl)ccc1NCc1cnco1)N1CCN(C(=O)CNC(=O)[C@@H]2CC23CCC(F)(F)CC3)CC1 [Compound 1587],IC50,[5]; Vesicular stomatitis virus,130 nM
"CS(=O)(=O)c1ccc(COc2ccc(Cl)cc2CN2CCN(C(=O)CNC(=O)C3CC34CCC(F)(F)CC4)CC2)nc1 (stereo not shown) [Compound 1621, 6,6-Difluoro-spiro[2.5]octane-1-carboxylic acid (2-{4-[5-chloro-2-(5-methanesulfonyl-pyridin-2-ylmethoxy)-benzyl]-piperazin-1-yl}-2-oxo-ethyl)-amide]",IC50,[5]; Vesicular stomatitis virus,30 nM
"N#Cc1ccc(COc2ccc(Cl)cc2CN2CCN(C(=O)CNC(=O)C3CC34CCC(F)(F)CC4)CC2)nc1 (stereo not shown) [Compound 1622, 6,6-Difluoro-spiro[2.5]octane-1-carboxylic acid (2-{4-[5-chloro-2-(5-cyano-pyridin-2-ylmethoxy)-benzyl]-piperazin-1-yl)-2-oxo-ethyl)-amide]",IC50,[5]; Vesicular stomatitis virus,19 nM
CNC(=O)c1ccc(COc2ccccc2CN2CCN(C(=O)CNC(=O)CC34CC5CC(CC(C5)C3)C4)CC2)cc1 [Compound 1801],IC50,[5]; Vesicular stomatitis virus,2100 nM
CN(C)C(=O)c1ccc(COc2ccccc2CN2CCN(C(=O)CNC(=O)CC34CC5CC(CC(C5)C3)C4)CC2)cc1 [Compound 1802],IC50,[5]; Vesicular stomatitis virus,3300 nM
NC(=O)c1ccc(Cl)cc1CN1CCN(C(=O)CNC(=O)CC23CC4CC(CC(C4)C2)C3)CC1 [Compound 1804],IC50,[5]; Vesicular stomatitis virus,1900 nM
"O=C(CNC(=O)C12CC3CC(C1)CC(c1ccc(O)c([N+](=O)[O-])c1)(C3)C2)N1CCN(Cc2ccccc2OCc2ccc(Br)cc2)CC1 [Compound 1805, (1s,3r,5R,7S)—N-(2-(4-(2-((4-bromobenzyl)oxy)benzyl)piperazin-1-yl)-2-oxoethyl)-3-(4-hydroxy-3-nitrophenyl)adamantane-1-carboxamide]",IC50,[5]; Vesicular stomatitis virus,600 nM
"Nc1ccc(Cl)cc1CN1CCN(C(=O)CNC(=O)C2CC23CCCC3)CC1 (stereo not shown) [Compound 1806, N-(2-(4-(2-Amino-5-chlorobenzyl)piperazin-1-yl)-2-oxoethyl)spiro[2.4]heptane-1-carboxamide]",IC50,[5]; Vesicular stomatitis virus,240 nM
"Nc1ccc(Cl)cc1CN1CCN(C(=O)CNC(=O)C2CC23CCC3)CC1 (stereo not shown) [Compound 1807, N-(2-(4-(2-Amino-5-chlorobenzyl)piperazin-1-yl)-2-oxoethyl)spiro[2.3]hexane-1-carboxamide]",IC50,[5]; Vesicular stomatitis virus,2500 nM
"CC(C)c1nc(CN(C)C(=O)N[C@H](C(=O)N[C@@H](Cc2ccccc2)C[C@H](O)[C@H](Cc2ccccc2)NC(=O)OCc2cncs2)C(C)C)cs1 [Ritonavir, reference compound]",IC50,"[5]; Vesicular stomatitis virus, read-out: IC50, VSV EBOV infection",> 25000 nM
